Test results taken from patent US10093627B2, “Tetrahydroquinoline derivatives and their use as Epac inhibitors” (Institut National de la Sante et de la Recherche Medicale …, priority 2012, dated 2018).

Key:
Epac1 [1] = biological target: T1, Epac1 (Homo sapiens, UniProt O95398); experiment: In vitro GEF activity (initial velocity of GDP exchange on Rap1A) of Epac1; type: biochemical; conditions: for EC50: Epac1 GEF activity toward Rap1, Epac1 activated by 20 μM 007, mean of n=4 to 9 independent determinations; for Dose-response curve of inhibition of 007-activated Epac1 GEF activity, comparison between compounds: Epac1 activated by 20 μM 007, FIG. 5; for Antagonism of cAMP-activated Epac1 GEF activity: compound 30 μM, 300 μM cAMP, FIG. 6C
T1 construct: Recombinant human Epac1 (residues 149-881), deleted of its Dishevelled, Egl-10, and Pleckstrin (DEP) domain; made in house
T1 sequence (O95398 149-881 isoform O95398-3): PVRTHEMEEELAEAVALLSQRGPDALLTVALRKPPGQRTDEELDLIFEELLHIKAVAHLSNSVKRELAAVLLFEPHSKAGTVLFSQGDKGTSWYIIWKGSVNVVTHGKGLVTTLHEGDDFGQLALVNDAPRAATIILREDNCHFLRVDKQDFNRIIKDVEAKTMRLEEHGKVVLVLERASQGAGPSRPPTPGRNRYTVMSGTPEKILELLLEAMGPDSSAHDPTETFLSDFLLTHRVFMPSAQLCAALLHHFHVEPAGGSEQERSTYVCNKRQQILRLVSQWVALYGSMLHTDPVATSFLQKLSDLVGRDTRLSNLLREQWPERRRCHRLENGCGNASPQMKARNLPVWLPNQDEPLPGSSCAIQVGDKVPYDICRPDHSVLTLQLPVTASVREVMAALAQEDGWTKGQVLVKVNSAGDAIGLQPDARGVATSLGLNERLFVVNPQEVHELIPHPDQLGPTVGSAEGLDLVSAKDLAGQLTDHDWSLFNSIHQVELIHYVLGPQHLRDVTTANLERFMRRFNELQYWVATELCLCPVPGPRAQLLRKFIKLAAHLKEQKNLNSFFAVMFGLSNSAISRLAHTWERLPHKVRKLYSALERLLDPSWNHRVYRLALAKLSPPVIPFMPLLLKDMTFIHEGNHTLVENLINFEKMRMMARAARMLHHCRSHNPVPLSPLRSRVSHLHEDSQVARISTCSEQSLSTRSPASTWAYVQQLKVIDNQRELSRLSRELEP
Protocol: Protein NCBI Reference Sequences for human Epac1 and Epac2 are NP_006096 and NP_008954, respectively. Recombinant human Epac1 (residues 149-881), deleted of its Dishevelled, Egl-10, and Pleckstrin (DEP) domain, and human Rap1A were produced with GST as a fusion tag (D. Courilleau et al., Identification of a tetrahydroquinoline analog as a pharmacological inhibitor of the cAMP-binding protein Epac, J. Biol. Chem. 287 (2012) 44192-44202).
(§1) In vitro GDP exchange catalyzed by Epac was measured using purified recombinant Epac isoforms and Rap1A loaded with Bodipy-GDP, as described in D. Courilleau, et al (above mentioned). The GEF activity of Epac proteins was initiated by injection of the agonist. Stock solutions of CE3F4 and its analogs (12 mM in 100% DMSO) were kept at −20° C. and were diluted in assay buffer (0.67% final DMSO concentration) just before use for GDP exchange assays. The release of Bodipy-GDP was measured in real time as the decay of fluorescence. A single exponential was fit to the time-course data using the Graphpad Prism program. The initial velocity (Vi) of GDP exchange on Rap1 was calculated as described in D. Courilleau et al.).
(§2) Data are expressed as mean±S.D. Differences in quantitative variables were examined by unpaired one- or two-tailed Student's t test. EC50 and IC50 values were computed according to a four-parameters dose-response model and compared on the basis of the extra sum-of square F test, using Graphpad Prism. Two-tailed Wilcoxon matched-pair signed rank tests were performed using GraphPad Prism.

Epac2(B) = biological target: T2, Epac2(B) (Homo sapiens, UniProt Q8WZA2); experiment: In vitro GEF activity (initial velocity of GDP exchange on Rap1A) of Epac2(B); type: biochemical; conditions: for Antagonism of cAMP-activated Epac2(B) GEF activity: compound 30 μM, 300 μM cAMP, FIG. 6C
T2 construct: Human Epac2(B) (amino acids 283-1011) lacks the first 283 amino acids of Epac2; made in house; host or cells: Escherichia coli Rosetta 2(DE3)
T2 sequence (Q8WZA2 283-1011): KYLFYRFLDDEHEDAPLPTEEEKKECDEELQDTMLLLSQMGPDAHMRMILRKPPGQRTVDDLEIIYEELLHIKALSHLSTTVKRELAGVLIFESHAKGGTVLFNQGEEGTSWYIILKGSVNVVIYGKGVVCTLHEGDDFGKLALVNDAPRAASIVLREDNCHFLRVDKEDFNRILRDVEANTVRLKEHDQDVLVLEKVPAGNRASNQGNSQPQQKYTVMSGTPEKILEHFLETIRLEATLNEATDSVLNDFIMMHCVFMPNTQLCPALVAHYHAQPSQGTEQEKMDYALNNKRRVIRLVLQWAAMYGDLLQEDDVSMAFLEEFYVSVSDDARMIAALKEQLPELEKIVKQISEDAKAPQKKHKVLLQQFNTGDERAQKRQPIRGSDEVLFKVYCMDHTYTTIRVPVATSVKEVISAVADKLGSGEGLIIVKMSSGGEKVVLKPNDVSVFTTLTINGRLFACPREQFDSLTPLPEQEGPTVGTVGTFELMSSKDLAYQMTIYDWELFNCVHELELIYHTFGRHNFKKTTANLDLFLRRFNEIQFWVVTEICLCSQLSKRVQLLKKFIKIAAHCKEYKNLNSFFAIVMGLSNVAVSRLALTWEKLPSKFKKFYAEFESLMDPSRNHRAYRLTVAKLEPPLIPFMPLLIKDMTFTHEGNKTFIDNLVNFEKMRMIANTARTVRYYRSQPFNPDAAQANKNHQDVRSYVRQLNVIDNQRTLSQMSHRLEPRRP
Text: Human Epac2(AB) (amino acids 43-1011) carries both the CNB-A and the CNB-B domains. Human Epac2(B) (amino acids 283-1011) lacks the first 283 amino acids of Epac2. It is therefore deleted of its CNB-A and DEP domains, but retains the CNB-B domain and the full catalytic region. Epac2(AB) was obtained by HindIII/NotI restriction and Epac2(B) was obtained by Ssp1/Not1 restriction of a human Epac2A cDNA (a gift from Ann M Graybiel, Department of Brain and Cognitive Sciences, MIT, Cambridge). Both cDNA fragments were inserted into pET41a (Novagen), expressed in Escherichia coli Rosetta 2(DE3) (Novagen), and the GST-tagged fusion proteins were purified by nickel-nitrilotriacetic acid beads (Qiagen), as described in D. Courilleau, et al., Identification of a tetrahydroquinoline analog as a pharmacological inhibitor of the cAMP-binding protein Epac, J. Biol. Chem. 287 (2012) 44192-44202).
as §1, §2

[2] = test system: Epac1-induced Rap1 activation in HEK293 cells; experiment: Epac1-induced Rap1 activation, Rap1-GTP pull-down in HEK293 cells; type: cell-based; conditions: HEK293 cells overexpressing Epac1 vs empty vector; FIG. 2A
Protocol: HEK293 cells were transfected with either pcDNA3 control vector or Epac1 (see FIG. 2A).
HEK293 cells were transfected with Epac1 and 24 h after transfection, cells were preincubated or not with CE3F4 for 30 min and were then treated or not with Sp-007 (10 μM) for 10 min (see FIG. 2B).
HEK293 cells overexpressing β1AR (Beta-1 adrenergic receptors) and transfected with Epac1 were pretreated or not with CE3F4 and stimulated or not with Iso (10 μM) for 10 min (see FIG. 2C).
Amounts of Rap1-GTP were determined by pull-down assays (see Material and Methods). The bar graph represents the mean±S.E.M. of 5 (FIG. 2A, 2B) or 3 (FIG. 2C) independent experiments. Results are expressed as the percentage of unstimulated control cells.
Ras and Rap1 pull-down experiments were performed using a GST fusion protein containing respectively the Ras binding domain of Raf1-RBD and the Rap1 binding domain of Ral-GDS as previously described (Métrich et al., 2008). Cells were starved for 1 h before stimulation in MEM free with penicillin-streptomycin (1%). After stimulation, cells were lysed in RIPA buffer (50 mM Tris-HCl, pH 7.5; 500 mM NaCl; 20 mM MgCl2; 0.5% deoxycholic acid; 0.1% SDS; 1% Triton X-100; 1 mM PMSF; protease and phosphatase inhibitors) and 500 μg of protein were incubated with either GST-Raf1-RBD (for Ras) or Ral-GDS (for Rap1) coupled to glutathione-Sepharose beads (Amersham Biosciences) for 1h at 4° C. Beads were then washed three times in washing buffer (50 mM Tris-HCl, pH 7.5; 150 mM NaCl, 20 mM MgCl2, 1% Triton X-100; 0.1 mM PMSF; protease and phosphatase inhibitors). Rap1-GTP or Ras samples and corresponding total lysates were separated on SDS-PAGE gels and transferred onto a polyvinylidene difluoride (PVDF) membrane (Amersham Pharmacia Biotech).

Epac1 [3] = biological target: T1, Epac1; experiment: Epac1 nucleotide exchange activity, multipoint (time-course) method, bGDP-loaded GST-Rap1A; type: biochemical; conditions: 25 μM compound 009; 2 μM compound 007; FIG. 1
Protocol: Epac1 nucleotide exchange activity was measured: • in the absence of compound 007, • or in the presence of 2 μM of compound 007, either alone or with 25 μM of compound 009, • or with 20 μM of CE3F4.
Variations of RFU (Relative Fluorescence Units) were studied as a function of time and fitted to single exponentials. Reported values are mean±SEM (n=3). (see Materiel and Methods).
Concerning FIG. 1, a “multipoint” (time-course) method was used. All components except the agonist (007) were mixed in a well and the exchange activity of Epac1 was initiated by injection of the agonist. GST-Rapt was preloaded with a fluorescent derivative of GDP, and the Epac1-catalyzed nucleotide exchange was measured using a large excess of non-fluorescent GDP, by taking advantage of the spectroscopic difference between free and Rap1-bound fluorescently labeled GDP. The principle of the method is similar to that reported in particular by Van den Berghe et al. (1997; Oncogene 15, 845), except that Bodipy FL-labeled GDP (bGDP) was used here, rather than 2′,3′-bis(O)—N-methylanthraniloyl-GDP (mant-GDP). […]

SMILES	Antagonism of cAMP-activated Epac1 GEF activity (Epac1 [1])	Antagonism of cAMP-activated Epac2(B) GEF activity (Epac2(B))	further results
C[C@@H]1CCc2c(cc(Br)c(F)c2Br)N1C=O [(R)-CE3F4]	–	–	IC50 smaller than that of racemic CE3F4 (Epac1 GEF activity) (Epac1 [1]; 007-activated Epac1): about 2 fold; IC50 smaller than the IC50 values of (S)-CE3F4 and compound f) (Epac1 GEF activity) (Epac1 [1]; 007-activated Epac1): about 10 fold; EC50 (Epac1 [1]): 5.8 µM; Dose-response curve of inhibition of 007-activated Epac1 GEF activity, comparison between compounds (Epac1 [1]): more potent Epac inhibitor; IC50 (Epac1 [1]; Epac1 activated by 300 μM cAMP): 4.2 µM; IC50 (Epac2(B); Epac2(B) activated by 300 μM cAMP): 44 µM
CC(=O)N1c2cc(Br)c(F)c(Br)c2CCC1C (stereo not shown) [g)]	antagonistic properties	–	–
CC1CCc2c(cc(Br)c(F)c2Br)N1 (stereo not shown) [h)]	antagonistic properties	–	–
CC1CCc2cc(F)c(Br)cc2N1C=O (stereo not shown) [b), reference compound]	no significant inhibitory activity	no significant inhibitory activity	–
CO[C@H]1C2OP(O)(=S)OC[C@H]2O[C@H]1n1c(Sc2ccc(Cl)cc2)nc2c(N)ncnc21 (stereo partly shown) [Sp-007, Sp-8-pCPT-2′-O-Me-cAMPS, reference compound]	–	–	Rap1 activation (Rap1-GTP/Total Rap1) by agonist [2]: robust activation of Rap1
O=CN1CCCc2c1cc(Br)c(F)c2Br [Compound f)]	antagonistic properties	antagonistic properties	EC50 (Epac1 [1]): 50 µM; Dose-response curve of inhibition of 007-activated Epac1 GEF activity, comparison between compounds (Epac1 [1]): not significantly different
CC1CCc2c(ccc(F)c2Br)N1C=O (stereo not shown) [a)]	antagonistic properties	antagonistic properties	–
Nc1nc2c(nc(Sc3ccc(Cl)cc3)n2[C@@H]2O[C@@H]3COP(=O)(O)O[C@H]3[C@H]2O)c(=O)[nH]1 [Compound 009, 8-(4-chlorophenylthio)-guanosine-3′,5′-cyclic monophosphate, reference compound]	–	–	Inhibition of the exchange reaction induced by Epac1 plus 007 (Epac1 [3]): inhibitory effect
CC1CCc2c(Br)cc(Br)cc2N1C=O (stereo not shown) [e)]	antagonistic properties	antagonistic properties	–
CC1CCc2c(ccc(F)c2C=O)N1C=O (stereo not shown) [d), reference compound]	no significant inhibitory activity	no significant inhibitory activity	–
